One block for each substance: values may come before it. Bridge positions count the residues as written; N and C are the ends. Ends that are not written are not given here.
Key:
[1] = tested on: atherosclerotic plaques; test: Homing to atherosclerotic plaques in ApoE null mice on high-fat diet; type: in vivo; details: 100 mg FAM labeled peptide i.v., one hour
Description: ApoE null mice that had been kept on a high-fat diet were intravenously injected with […] of the FAM labeled peptides. One hour later, the mice were perfused through the heart under anesthesia, and tissues were collected. The panels show accumulation of FAM labeled peptides visualized with UV excitation. The center two and right two panels show atherosclerotic aortas that were sectioned at the aortic root level and examined by confocal microscopy.

[2] = tested on: orthotopic breast tumors; details: systemically administered; cited from earlier work
[3] = target: T1, p32 (Homo sapiens, UniProt Q07021); test: Fluorescence polarization assay with synthetic peptides on p32; type: binding; details: for inhibition of binding of labeled TT1 to P32 by unlabeled peptide: competition, fluorescence polarization
T1 construct: made in house; host or cells: E. coli Rosetta-gami-2 (Novagen)
T1 sequence (Q07021 74-282): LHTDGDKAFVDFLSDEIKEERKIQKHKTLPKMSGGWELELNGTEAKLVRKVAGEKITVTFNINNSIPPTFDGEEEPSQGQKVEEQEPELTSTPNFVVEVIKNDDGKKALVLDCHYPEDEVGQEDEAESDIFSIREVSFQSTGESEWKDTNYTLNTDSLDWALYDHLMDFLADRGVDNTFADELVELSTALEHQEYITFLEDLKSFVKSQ
Description: (§1) FIGS. 4A and 4B are plots showing a comparison of the binding of LyP-1 (SEQ ID NO: 7; diamonds) and TT1 (SEQ ID NO: 3; squares) to p32 in a fluorescence polarization assay. […] NRP-1 was used as a control protein.
FIG. 5 is a plot showing that P32-TT1 (CKRGARSTC; SEQ ID NO: 3) and LyP-1 (SEQ ID NO: 7) peptides competed for binding to the P32 protein. […] Squares: p32-TT1; Diamonds: LyP-1; X: RPARPAR peptide (SEQ ID NO: 14).
(§2) An exemplary RGXRS (SEQ ID NO: 4) pentapeptide motif-containing peptide with the sequence CKRGARSTC (SEQ ID NO: 3) was designated as the […] and used it for further studies. Mutating any amino acid in the consensus motif of TT1 abolished the phage binding to p32. This new peptide conferred about 15-fold stronger phage binding to immobilized p32 protein than did the canonical LyP-1 peptide.

[4] = tested on: orthotopic MCF10CA1a breast tumor xenografts; test: Tumor homing and penetration of peptide-conjugated nanoworms (NWs); type: in vivo, athymic nude mice
Description: FIG. 12 is a fluorescent micrograph showing tumor homing of linear TT1-NWs. Tumor-bearing mice were intravenously injected with FAM-LinTT1-coated NWs (7.5 mg iron/kg) and allowed to circulate for 5 hours. The mice were perfused through the heart with PBS, and tumors and organs were collected and processed for fluorescence microscopy. The left panel is a representative confocal microscopy image from tumors in mice. […]
FIG. 13 is a bar graph showing quantification of the homing of various peptide-coated NWs. […] Quantification of fluorescence was done with ImageJ software (available from the website of the United States National Institutes of Health). In addition to the tumors, NWs were detected in the liver and spleen, which non-specifically capture nanoparticles regardless of their peptide coating. […]
FIG. 15 is a bar graph showing tumor accumulation of NWs coated with chimeric peptides consisting of a homing peptide and pro-apoptotic peptide. Quantification of NW fluorescence was done with ImageJ software. […]
In vivo peptide homing. […] After 5-6 hours of NW circulation the mice were euthanized by cardiac perfusion with PBS under anesthesia, and tumors and organs were dissected and analyzed for particle homing.
Immunofluorescence. […] The primary antibody was detected with Alexa 594-labeled goat anti-rat secondary antibody (1:1000; Molecular Probes). […]

[5] = target: T1, p32; test: Binding of peptide-displaying T7 phage to p32-coated magnetic beads; details: p32-coated magnetic beads
Description: FIG. 10 is a bar graph showing that the p32 binding of the RGXR(S/T) motif (SEQ ID NOs: 4 and 5) in the exemplary TT1 peptide (SEQ ID NO: 3) was not dependent on the cyclic structure and compatible with flanking sequences. Phage clones displaying the indicated peptides were incubated in p32-coated magnetic microbeads. After washing to remove non-bound phage, specifically bound phage were quantified.
Milligram quantities of recombinant His-tagged p32 protein were expressed in E. coli and coated onto Ni-NTA magnetic beads, and biopanning was performed using two T7 bacteriophage peptide libraries (cyclic Cx7C and linear X7 library).
Variant peptide-encoding genomic DNA of phage was sequenced and analyzed for the presence of consensus motifs. After two rounds of selection, both linear and cyclic libraries converged to contain an RGXRS (SEQ ID NO: 4) pentapeptide motif (see FIG. 2B). The binding of RGXRS (SEQ ID NO: 4)-displaying phage to p32 was specific, as these phage bound to magnetic beads coated with p32 protein and not to beads coated with ligand-binding b1b2 domain of the cell and tissue penetration receptor NRP-1 or BSA (see FIG. 3).
as §2

[6] = target: NRP-1 (Homo sapiens, UniProt O14786); test: Fluorescence polarization assay on NRP-1 (control protein); type: binding; details: NRP-1 as control protein
Description: as §1

[7] = tested on: mitochondrial membranes; details: significantly less than the concentration required to kill eukaryotic cells; cited from earlier work

Sequence of NRP-1 (O14786 22-923): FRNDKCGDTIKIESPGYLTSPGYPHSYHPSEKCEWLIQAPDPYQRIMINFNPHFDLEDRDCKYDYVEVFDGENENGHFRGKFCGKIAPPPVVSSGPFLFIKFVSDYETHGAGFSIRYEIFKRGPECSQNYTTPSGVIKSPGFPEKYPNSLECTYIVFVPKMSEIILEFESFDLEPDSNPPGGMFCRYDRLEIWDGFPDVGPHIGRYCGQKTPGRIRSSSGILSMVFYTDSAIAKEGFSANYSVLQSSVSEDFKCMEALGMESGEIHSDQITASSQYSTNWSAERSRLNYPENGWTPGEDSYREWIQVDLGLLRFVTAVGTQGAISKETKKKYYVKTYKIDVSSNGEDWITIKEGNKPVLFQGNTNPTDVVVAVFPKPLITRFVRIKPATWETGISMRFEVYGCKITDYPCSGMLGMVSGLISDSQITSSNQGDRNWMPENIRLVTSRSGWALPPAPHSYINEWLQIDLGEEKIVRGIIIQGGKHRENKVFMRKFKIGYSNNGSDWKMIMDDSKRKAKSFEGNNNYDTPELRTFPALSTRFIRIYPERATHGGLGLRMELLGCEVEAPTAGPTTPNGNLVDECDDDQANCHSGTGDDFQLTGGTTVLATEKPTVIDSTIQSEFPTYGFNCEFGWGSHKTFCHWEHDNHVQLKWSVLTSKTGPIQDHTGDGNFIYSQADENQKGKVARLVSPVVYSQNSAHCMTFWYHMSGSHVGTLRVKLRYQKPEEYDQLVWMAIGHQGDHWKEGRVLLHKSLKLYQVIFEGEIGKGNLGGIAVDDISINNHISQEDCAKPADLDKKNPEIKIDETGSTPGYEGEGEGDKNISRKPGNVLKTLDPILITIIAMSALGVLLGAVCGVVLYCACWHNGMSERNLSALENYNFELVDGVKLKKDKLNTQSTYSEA

inhibition of binding of labeled TT1 to P32 by unlabeled peptide [3]: could be inhibited
Substance: CGNKRTRGC (disulfide 1-9 (inferred)) [LyP-1, reference compound]
homing to and penetration into plaque tissue [1]: seen inside plaques
homing to and penetration of orthotopic breast tumors [2]: efficiently home to and penetrate orthotopic breast tumors in vivo
tumor homing and extravascular penetration of homing peptide-D[KLAKLAK]2 NWs (in words) ([4]; homing peptide-D[KLAKLAK]2 chimeric peptide on NWs): more effective than the CGKRK

Substance: AKRGARSTA [LinTT1]
phage binding to p32 (in words) ([5]; listed as TT1 Peptide variant): retains the binding activity
phage binding to p32 (in words) ([5]; listed as TT1 variant): retained the binding activity
affinity for p32 (in words) ([3]; method not stated at the place): low affinity for the receptor
tumor homing of peptide-coated NWs (in words) ([4]; 7.5 mg iron/kg i.v., 5 hours circulation): most effective peptide in the nanoparticle context

Substance: CRGDKGPDC [iRGD]
homing to and penetration of orthotopic breast tumors [2]: efficiently home to and penetrate orthotopic breast tumors in vivo

Substance: RPARPAR [reference compound]
binding to NRP-1 in fluorescence polarization assay (in words) [6]: avidly bound to NRP-1
inhibition of binding of labeled TT1 to P32 by unlabeled peptide [3]: not

Substance: KLAKLAKKLAKLAK (also: D-amino acids, positions not given here) [D(KLAKLAK)2]
concentration inducing marked mitochondrial swelling [7]: 10 µM

Reference: US12195558B2, “Targeted delivery system and methods of use therefor” (SANFORD BURNHAM PREBYS MEDICAL DISCOVERY INSTITUTE, priority 2015, dated 2025)
